Test results taken from patent US9981962B2, “Pyrazole derivatives as NIK inhibitors” (Janssen Pharmaceutica NV, priority 2014, dated 2018).

Legend:
LP-1 cells = assay: Biological Assay C: antiproliferative activity on LP-1 cells (CellTiter-Glo); format: cell-based, human; details: 72 hr treatment, averaged values
Experimental: (§1) Determination of Antiproliferative Activity on LP-1, L-363 and JJN-3 Cells
(§2) All compounds tested were dissolved in DMSO and further dilutions were made in culture medium. Final DMSO concentration was 0.3% (v/v) in cell proliferation assays. Viability was assessed using CellTiter-Glo cell viability assay kit (Promega). The human LP-1, L-363 and JJN-3 cells (DSMZ) were cultured in RPMI 1640 medium supplemented with 2 mM L-glutamine, and 10% fetal calf serum (PAA). Cells were routinely kept as suspension cells at 37° C. in a humidified 5% CO2 atmosphere. Cells were passaged at a seeding density of 0.2×10^6/ml twice a week. Cells were seeded in black tissue culture treated 96-well plates (Perkin Elmer). Densities used for plating ranged from 2,000 to 6,000 cells per well in a total volume of 75 μl medium. After twenty four hours, drugs and/or solvents were added (25 μl) to a final volume of 100 μl. Following 72 hr of treatment plates were removed from the incubator and allowed to equilibrate to room temperature for approx 10 min. 100 ut CellTiter-Glo reagent was added to each well that was then covered (Perkin Elmer Topseal) and shaken on plate shaker for 10 min. Luminescence was measured on a HTS Topcount (Perkin Elmer). Within an experiment, the results for each treatment were the mean of 2 replicate wells. For initial screening purposes, compounds were tested using a 9 point dilution curve (serial 1:3 dilutions). For each experiment, controls (containing no drug) and a blank incubation (containing cells read at the time of compound addition) were run in parallel. The blank value was subtracted from all control and sample values. For each sample, the mean value for cell growth (in relative light units) was expressed as a percentage of the mean value for cell growth of the control.

JJN-3 cells = assay: Biological Assay C: antiproliferative activity on JJN-3 cells (CellTiter-Glo); format: cell-based, human; details: 72 hr treatment, averaged values
Experimental: as §1, §2

L-363 cells = assay: Biological Assay C: antiproliferative activity on L-363 cells (CellTiter-Glo); format: cell-based, human; details: 72 hr treatment, averaged values
Experimental: as §1, §2

[1] = target: Recombinant Human NF-kappaB-Inducing Kinase (NIK/MAP3K14) (Homo sapiens, UniProt Q99558); assay: Biological Assay A2: inhibition of auto-phosphorylation of recombinant human NIK/MAP3K14 (AlphaScreen); format: biochemical; details: 0.2 nM GST-tagged NIK, 25 microM ATP, 1 h at 25° C., averaged values
Experimental: Inhibition of Auto-Phosphorylation of Recombinant Human NF-kappaB-Inducing Kinase (NIK/MAP3K14) Activity (AlphaScreen®)
NIK/MAP3K14 auto-phosphorylation activity was measured using the AlphaScreen® (αscreen) format (Perkin Elmer). All compounds tested were dissolved in dimethyl sulfoxide (DMSO) and further dilutions were made in assay buffer. Final DMSO concentration was 1% (v/v) in assays. Assay buffer was 50 mM Tris pH 7.5 containing 1 mM EGTA (ethylene glycol tetraacetic acid), 1 mM DTT (dithiothreitol), 0.1 mM Na3VO4, 5 mM MgCl2, 0.01% Tween® 20. Assays were carried out in 384 well Alphaplates (Perkin Elmer). Incubations consisted of compound, 25 microM Adenosine-5′-triphosphate (ATP), and 0.2 nM NIK/MAP3K14. Incubations were initiated by addition of GST-tagged NIK/MAP3K14 enzyme, carried out for 1 h at 25° C. and terminated by addition of stop buffer containing anti-phospho-IKK Ser176/180 antibody. Protein A Acceptor and Glutathione-Donor beads were added before reading using an EnVision® Multilabel Plate Reader (Perkin Elmer). Signal obtained in the wells containing blank samples was subtracted from all other wells and IC50's were determined by fitting a sigmoidal curve to % inhibition of control versus Log10 compound concentration.

[2] = system: P-IKKα levels in L363 cells; assay: Biological Assay B: effect of compounds on P-IKKα levels in L363 cells; format: cell-based; details: Homo sapiens, L-363, BAFF stimulated, 2 hr treatment, averaged values, read-out: IKKα Cellular IC50
Experimental: Effect of Compounds on P-IKKα Levels in L363 Cells
All compounds tested were dissolved in DMSO and further dilutions were made in culture medium. Final DMSO concentration was 1% (v/v) in cell assays. The human L363 cells (ATCC) were cultured in RPMI 1640 medium supplemented with GlutaMax and 10% fetal calf serum (PAA). Cells were routinely maintained at densities of 0.2×10^6 cells per ml—1×10^6 cells per ml at 37° C. in a humidified 5% CO2 atmosphere. Cells were passaged twice a week splitting back to obtain the low density. Cells were seeded in 96 well plates (Nunc 167008) at 2×10^6 per ml media in a volume of 75 μl per well plus 25 μl 1 μg/ml recombinant human B-cell activating factor (BAFF/BLyS/TNFSF13B). Seeded cells were incubated at 37° C. in a humidified 5% CO2 atmosphere for 24 hr. Drugs and/or solvents were added (20 μl) to a final volume of 120 μl. Following 2 hr treatment plates were removed from the incubator and cell lysis was achieved by the addition of 30 μl 5× lysis buffer followed by shaking on a plate shaker at 4° C. for 10 min. At the end of this incubation lysed cells were centrifuged at 800×g for 20 min at 4° C. and the lysate was assessed for P-IKKα levels by sandwich immuno-assay carried out in anti-rabbit antibody coated Mesoscale plates. Within an experiment, the results for each treatment were the mean of 2 replicate wells. For initial screening purposes, compounds were tested using an 8 point dilution curve (serial 1:3 dilutions). For each experiment, controls (containing MG132 and BAFF but no test drug) and a blank incubation (containing MG132 and BAFF and 10 μM ADS125117, a test concentration known to give full inhibition) were run in parallel. The blank incubation value was subtracted from all control and sample values. To determine the IC50 a sigmoidal curve was fitted to the plot of % inhibition of control P-IKKα levels versus Log10 compound concentration.

Sequence of Recombinant Human NF-kappaB-Inducing Kinase (NIK/MAP3K14) (Q99558 whole entry): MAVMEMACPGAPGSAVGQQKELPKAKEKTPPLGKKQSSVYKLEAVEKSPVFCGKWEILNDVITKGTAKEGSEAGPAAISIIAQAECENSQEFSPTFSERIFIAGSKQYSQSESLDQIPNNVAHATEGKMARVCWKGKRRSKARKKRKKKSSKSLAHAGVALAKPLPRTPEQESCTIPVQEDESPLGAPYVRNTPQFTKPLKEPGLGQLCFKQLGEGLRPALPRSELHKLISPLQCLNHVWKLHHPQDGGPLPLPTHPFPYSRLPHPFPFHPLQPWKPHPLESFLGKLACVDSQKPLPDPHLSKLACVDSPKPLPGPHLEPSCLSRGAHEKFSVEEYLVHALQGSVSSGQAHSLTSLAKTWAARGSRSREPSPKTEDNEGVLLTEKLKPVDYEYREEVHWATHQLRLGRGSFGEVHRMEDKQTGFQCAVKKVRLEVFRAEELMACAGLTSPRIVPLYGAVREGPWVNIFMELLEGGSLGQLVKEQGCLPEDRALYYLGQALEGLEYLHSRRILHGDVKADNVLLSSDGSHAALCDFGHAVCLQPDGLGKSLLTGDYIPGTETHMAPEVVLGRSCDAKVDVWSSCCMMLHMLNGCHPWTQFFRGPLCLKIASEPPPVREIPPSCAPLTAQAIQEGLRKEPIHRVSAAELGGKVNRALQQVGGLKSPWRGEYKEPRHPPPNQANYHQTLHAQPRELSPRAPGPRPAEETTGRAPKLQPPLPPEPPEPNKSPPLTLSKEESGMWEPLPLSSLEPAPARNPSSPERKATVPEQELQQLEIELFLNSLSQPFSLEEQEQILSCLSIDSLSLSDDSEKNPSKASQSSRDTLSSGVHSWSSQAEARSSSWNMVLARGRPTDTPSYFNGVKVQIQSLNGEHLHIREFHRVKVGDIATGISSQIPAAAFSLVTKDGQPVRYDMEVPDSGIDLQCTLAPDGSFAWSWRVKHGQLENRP

[2H]C([2H])([2H])C(O)(C#Cc1cc2c(-c3c[nH]nc3Cl)cn(C3CCCN(CC)C3)c2cc1F)C([2H])([2H])[2H] (single isomer, unassigned) [Compound 31]
EC50 (LP-1 cells): 731 nM
EC50 (JJN-3 cells): 606 nM
EC50 (L-363 cells): 436 nM
IC50 [1]: 146 nM

[2H]C([2H])([2H])C(O)(C#Cc1cc2c(-c3c[nH]nc3Cl)cn(C3CCCN(CC)C3)c2cc1F)C([2H])([2H])[2H] (single isomer, unassigned) [Compound 32]
EC50 (LP-1 cells): 407 nM
EC50 (JJN-3 cells): 437 nM
EC50 (L-363 cells): 310 nM
IC50 [1]: 76 nM

[2H]C([2H])([2H])C(O)(C#Cc1cc2c(-c3c[nH]nc3Cl)cn(C3CCN(C4CC4)CC3)c2cc1F)C([2H])([2H])[2H] [Compound 15]
EC50 (LP-1 cells; Homo sapiens, LP-1, 72 h): 581 nM
EC50 (JJN-3 cells; Homo sapiens, JJN-3, 72 h): 608 nM
EC50 (L-363 cells; Homo sapiens, L-363, 72 h): 265 nM
IC50 [1]: 71 nM

[2H]c1n[nH]c([2H])c1-c1cn(CC)c2cc(F)c(C#CC(C)(C)O)cc12 [Compound 16]
EC50 (LP-1 cells; Homo sapiens, LP-1, 72 h): 14200 nM
IC50 [1]: 8510 nM

COCCCn1cc(-c2c[nH]nc2Cl)c2cc(C#CC(C)(O)C3CC3)c(F)cc21 (stereo not shown) [Compound 17]
EC50 (LP-1 cells; Homo sapiens, LP-1, 72 h): 1400 nM
EC50 (JJN-3 cells; Homo sapiens, JJN-3, 72 h): 1520 nM
EC50 (L-363 cells; Homo sapiens, L-363, 72 h): 3240 nM
IC50 [1]: 183 nM

COCCCn1cc(-c2c[nH]nc2Cl)c2cc(C#CC(C)(C)O)c(F)cc21 [Compound 18]
EC50 (LP-1 cells; Homo sapiens, LP-1, 72 h): 1510 nM
EC50 (JJN-3 cells; Homo sapiens, JJN-3, 72 h): 706 nM
EC50 (L-363 cells; Homo sapiens, L-363, 72 h): 1180 nM
IC50 [1]: 33 nM

CN1CCC(n2cc(-c3c[nH]nc3Cl)c3cc(C#CC(C)(O)C4CC4)c(F)cc32)CC1 (stereo not shown) [Compound 19]
EC50 (LP-1 cells; Homo sapiens, LP-1, 72 h): 749 nM
EC50 (JJN-3 cells; Homo sapiens, JJN-3, 72 h): 811 nM
EC50 (L-363 cells; Homo sapiens, L-363, 72 h): 632 nM
IC50 [1]: 190 nM

CN1CCC(n2cc(-c3c[nH]nc3Cl)c3cc(C#CC(C)(C)O)c(F)cc32)CC1 [Compound 20]
EC50 (LP-1 cells; Homo sapiens, LP-1, 72 h): 111 nM
EC50 (JJN-3 cells; Homo sapiens, JJN-3, 72 h): 61 nM
EC50 (L-363 cells; Homo sapiens, L-363, 72 h): 43 nM
IC50 [1]: 21 nM

CC(O)(C#Cc1cc2c(-c3c[nH]nc3Cl)cn(CCCO)c2cc1F)C1CC1 (stereo not shown) [Compound 21]
EC50 (LP-1 cells; Homo sapiens, LP-1, 72 h): 3510 nM
EC50 (JJN-3 cells; Homo sapiens, JJN-3, 72 h): 1090 nM
EC50 (L-363 cells; Homo sapiens, L-363, 72 h): 1930 nM
IC50 [1]: 67 nM

CC(C)(O)C#Cc1cc2c(-c3c[nH]nc3Cl)cn(CCCO)c2cc1F [Compound 22]
EC50 (LP-1 cells; Homo sapiens, LP-1, 72 h): 1350 nM
EC50 (JJN-3 cells; Homo sapiens, JJN-3, 72 h): 255 nM
EC50 (L-363 cells; Homo sapiens, L-363, 72 h): 430 nM
IC50 [1]: 11 nM
IC50 [2]: 32 nM

CCn1cc(-c2c[nH]nc2Cl)c2cc(C#CC(C)(C)O)cc(Cl)c21 [Compound 23]
EC50 (LP-1 cells; Homo sapiens, LP-1, 72 h): 3610 nM
EC50 (JJN-3 cells; Homo sapiens, JJN-3, 72 h): 2740 nM
EC50 (L-363 cells; Homo sapiens, L-363, 72 h): 5400 nM
IC50 [1]: 204 nM

CCn1cc(-c2c[nH]nc2Cl)c2cc(C#CC(C)(C)O)c(F)cc21 [Compound 24]
EC50 (LP-1 cells; Homo sapiens, LP-1, 72 h): 1580 nM
EC50 (JJN-3 cells; Homo sapiens, JJN-3, 72 h): 734 nM
EC50 (L-363 cells; Homo sapiens, L-363, 72 h): 683 nM
IC50 [1]: 11 nM
IC50 [2]: 127 nM

CCn1cc(-c2c[nH]nc2Cl)c2cc(C#CC(C)(C)O)c(F)c(F)c21 [Compound 25]
EC50 (LP-1 cells; Homo sapiens, LP-1, 72 h): 3230 nM
EC50 (JJN-3 cells; Homo sapiens, JJN-3, 72 h): 2230 nM
EC50 (L-363 cells; Homo sapiens, L-363, 72 h): 4350 nM
IC50 [1]: 86 nM

CCn1cc(-c2cn[nH]c2)c2cc(C#CC(C)(C)O)cc(F)c21 [Compound 26]
EC50 (LP-1 cells; Homo sapiens, LP-1, 72 h): 2210 nM
EC50 (JJN-3 cells; Homo sapiens, JJN-3, 72 h): 1570 nM
EC50 (L-363 cells; Homo sapiens, L-363, 72 h): 1130 nM
IC50 [1]: 51 nM

CCn1cc(-c2cn[nH]c2)c2cc(C#CC(C)(C)O)cc(C(F)(F)F)c21 [Compound 27]
IC50 [1]: 552 nM

CCn1cc(-c2cn[nH]c2)c2cc(C#CC(C)(C)O)cc(C#N)c21 [Compound 28]
IC50 [1]: 554 nM

CN1CC(n2cc(-c3c[nH]nc3Cl)c3cc(C#CC(C)(C)O)c(F)cc32)C1 [Compound 29]
EC50 (LP-1 cells; Homo sapiens, LP-1, 72 h): 758 nM
EC50 (JJN-3 cells; Homo sapiens, JJN-3, 72 h): 375 nM
EC50 (L-363 cells; Homo sapiens, L-363, 72 h): 176 nM
IC50 [1]: 50 nM

[2H]C([2H])([2H])C(O)(C#Cc1cc2c(-c3c[nH]nc3Cl)cn(C3CCCN(CC)C3)c2cc1F)C([2H])([2H])[2H] (stereo not shown) [Compound 30]
EC50 (LP-1 cells; Homo sapiens, LP-1, 72 h): 397 nM
EC50 (JJN-3 cells; Homo sapiens, JJN-3, 72 h): 379 nM
EC50 (L-363 cells): 201 nM
IC50 [1]: 126 nM

CN1CCC(n2cc(-c3c[nH]nc3Cl)c3cc(C#CC(C)(O)c4nccs4)c(F)cc32)CC1 (stereo not shown) [Compound 33]
EC50 (LP-1 cells; Homo sapiens, LP-1, 72 h): 1610 nM
EC50 (JJN-3 cells; Homo sapiens, JJN-3, 72 h): 624 nM
EC50 (L-363 cells; Homo sapiens, L-363, 72 h): 875 nM
IC50 [1]: 18 nM

Cc1cc(C(C)(O)C#Cc2cc3c(-c4c[nH]nc4Cl)cn(C4CCN(C)CC4)c3cc2F)no1 (stereo not shown) [Compound 34]
EC50 (LP-1 cells; Homo sapiens, LP-1, 72 h): 2450 nM
EC50 (JJN-3 cells; Homo sapiens, JJN-3, 72 h): 1380 nM
EC50 (L-363 cells; Homo sapiens, L-363, 72 h): 1220 nM
IC50 [1]: 42 nM

Cc1nc(C(C)(O)C#Cc2cc3c(-c4c[nH]nc4Cl)cn(C4CCN(C)CC4)c3cc2F)no1 (stereo not shown) [Compound 35]
EC50 (LP-1 cells; Homo sapiens, LP-1, 72 h): 4580 nM
EC50 (JJN-3 cells; Homo sapiens, JJN-3, 72 h): 1360 nM
EC50 (L-363 cells; Homo sapiens, L-363, 72 h): 1090 nM
IC50 [1]: 84 nM

CN1CCC(n2cc(-c3c[nH]nc3Cl)c3cc(C#CC4(O)CCCC4)c(F)cc32)CC1 [Compound 36]
EC50 (LP-1 cells; Homo sapiens, LP-1, 72 h): 1210 nM
EC50 (JJN-3 cells; Homo sapiens, JJN-3, 72 h): 1220 nM
EC50 (L-363 cells; Homo sapiens, L-363, 72 h): 845 nM

CN1CCC(n2cc(-c3c[nH]nc3Cl)c3cc(C#CC(C)(O)c4ncccn4)c(F)cc32)CC1 (stereo not shown) [Compound 37]
EC50 (LP-1 cells; Homo sapiens, LP-1, 72 h): 2510 nM
EC50 (JJN-3 cells; Homo sapiens, JJN-3, 72 h): 4470 nM
EC50 (L-363 cells; Homo sapiens, L-363, 72 h): 2880 nM
IC50 [1]: 162 nM
